The values that follow come from ChEMBL document CHEMBL4627275, “Inhibition of cholesteryl ester synthesis by polyacetylenes from Atractylodes rhizome” (Bioorg Med Chem Lett, 2020).

Activity calls are given as the source filed them. The rule behind the calls is not given here.

Assay [1] deals with CHO-K1. The assay is described as follows: Inhibition of [14C]triglyceride biosynthesis in CHOK1 cells using [14C]Oleic acid as substrate after 6 hrs by TLC method. Conditions: Cricetulus griseus, CHO-K1, 6 h. The format is functional, cell-based.
The test system of assay [2] is CHO-K1. The experiment in a line: Inhibition of [14C]cholesterol ester biosynthesis in CHOK1 cells using [14C]Oleic acid as substrate after 6 hrs by TLC method. In kind it is functional, cell-based. Conditions: Cricetulus griseus, CHO-K1, 6 h.
Assay [3] has as its target T1, Sterol O-acyltransferase 1 (Homo sapiens, UniProt P35610).
T1 sequence (P35610 whole entry): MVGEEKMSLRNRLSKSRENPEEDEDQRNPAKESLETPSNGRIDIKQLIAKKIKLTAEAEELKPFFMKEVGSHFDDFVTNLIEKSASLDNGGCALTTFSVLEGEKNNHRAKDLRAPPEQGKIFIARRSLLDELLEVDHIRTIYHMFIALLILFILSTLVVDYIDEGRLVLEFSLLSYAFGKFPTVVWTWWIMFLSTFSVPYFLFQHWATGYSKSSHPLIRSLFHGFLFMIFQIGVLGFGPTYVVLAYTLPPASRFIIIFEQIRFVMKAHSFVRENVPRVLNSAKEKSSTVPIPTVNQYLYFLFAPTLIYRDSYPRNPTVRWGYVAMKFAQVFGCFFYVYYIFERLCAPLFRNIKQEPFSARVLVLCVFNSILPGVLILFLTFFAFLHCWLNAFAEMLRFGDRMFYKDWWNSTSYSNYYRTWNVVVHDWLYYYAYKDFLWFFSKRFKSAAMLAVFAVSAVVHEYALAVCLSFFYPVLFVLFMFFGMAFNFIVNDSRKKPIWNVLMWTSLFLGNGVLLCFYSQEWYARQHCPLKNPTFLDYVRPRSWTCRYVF
The assay is described as follows: Inhibition of human SOAT1 mediated [14C]Cholesterol ester synthesis in CHO cells after 6 hrs in presence of [14C]Oleic acid by TLC analysis. In kind it is cell-based.

Assay [4] concerns the target T2, Sterol O-acyltransferase 2 (Homo sapiens, UniProt O75908).
T2 sequence (O75908 whole entry): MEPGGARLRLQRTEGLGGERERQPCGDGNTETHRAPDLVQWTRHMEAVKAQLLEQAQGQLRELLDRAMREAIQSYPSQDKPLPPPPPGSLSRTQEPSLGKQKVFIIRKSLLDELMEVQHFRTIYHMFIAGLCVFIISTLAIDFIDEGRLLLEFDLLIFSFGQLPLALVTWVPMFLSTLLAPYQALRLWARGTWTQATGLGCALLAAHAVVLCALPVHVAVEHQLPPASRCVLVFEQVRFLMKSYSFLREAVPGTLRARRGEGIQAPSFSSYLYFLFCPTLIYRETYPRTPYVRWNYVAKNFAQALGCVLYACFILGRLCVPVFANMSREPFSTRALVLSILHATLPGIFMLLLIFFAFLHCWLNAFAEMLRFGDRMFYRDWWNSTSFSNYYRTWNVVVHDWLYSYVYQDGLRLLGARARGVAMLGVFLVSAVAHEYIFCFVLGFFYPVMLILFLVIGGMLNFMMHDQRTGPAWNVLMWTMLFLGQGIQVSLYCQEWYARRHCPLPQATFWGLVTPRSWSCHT
The assay is described as follows: Inhibition of human SOAT2-mediated [14C]Cholesterol ester biosynthesis in CHO microsomal fraction after 5 mins in presence of [1-14C]oleoyl-CoA by TLC analysis.

Assay [5] has as its system CHO-K1. The experiment in a line: Effect on lipid droplet accumulation in CHOK1 cells at >100 uM preincubated with oleic acid for 12 hrs followed by replacement of fresh medium containing compounds and measured after 6 hrs by oil red O staining based confocal laser scanning microscopy. Conditions: Cricetulus griseus. In kind it is functional, cell-based.
In assay [6] the target is T1, Sterol O-acyltransferase 1. The experiment in a line: Inhibition of human SOAT1-mediated [14C]Cholesterol ester biosynthesis in CHO microsomal fraction after 5 mins in presence of [1-14C]oleoyl-CoA by TLC analysis.
Assay [7] relates to CHO-K1. The assay is described as follows: Cytotoxicity against CHOK1 cells assessed as reduction in cell viability. The format is cell-based. To be noted: Cricetulus griseus.
Assay [8] addresses T2, Sterol O-acyltransferase 2. The experiment in a line: Inhibition of human SOAT2-mediated [14C]Cholesterol ester synthesis in CHO cells after 6 hrs in presence of [14C]Oleic acid by TLC analysis. In kind it is cell-based.
Assay [9] can be described thus: (§1) Inhibition of SOAT in CHOK1 microsomes. Further details: species or system Cricetulus griseus. Conditions: cho-k1.
Assay [10] has as its system CHO-K1. The assay is described as §1. To be noted: Cricetulus griseus.

By IC50 is commonly meant the concentration that gives 50% inhibition. As for `CC(=O)OCCC(/C=C/C=C/C#CC#C/C=C/CO)OC(=O)C=C(C)C` (configuration not stated), the IC50 in assay [1] was over 136 µM; in assay [2], 35.4 µM; in assay [3], 32.8 µM; in [4], 11.5 µM; in assay [6], 4.7 µM; in assay [7], 111 µM. In addition, the half-maximal inhibitory concentration (IC50) came out at 36.2 µM in [8] and 29 µM in assay [9]. In [5], the outcome was inactive. In addition, the inhibition result in assay [10] is “Dose-dependent effect”.
For the compound `C=C1CCC[C@]2(C)C[C@]3(O)OC(=O)C(C)=C3C[C@@H]12` [ATRACTYLENOLIDE III], the 50% inhibitory concentration (IC50) in assay [1] is over 195 µM; in assay [2], 73.5 µM; in assay [4] it was 101 µM; in [7], over 195 µM; in [8], 187 µM; in assay [9], 211 µM. In assay [5], the outcome was inactive.
